Measurements reported in PubChem BioAssay (NCI).
Several values for one entry are separate records, joined by “and”; a condition that tells them apart may be missing. Equal entries are not always repeated.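 Cultured in 96-well plates, cells were exposed to test compound for 48 hours across five concentrations. Here, GI50 denotes the concentration required for 50% inhibition of growth. The concentration for full growth arrest is given as TGI.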

Experiments:
Assay in all cases: NCI tumour cell line growth inhibition, 48 h
NCI-H226 lung = test system: NCI-H226 lung
SF-268 CNS = test system: SF-268 CNS
A549 NSCLC = test system: A549 NSCLC
SK-OV-3 ovarian = test system: SK-OV-3 ovarian
BT-549 breast = test system: BT-549 breast
MALME-3M melanoma = test system: MALME-3M melanoma
T-47D breast = test system: T-47D breast
MOLT-4 leukemia = test system: MOLT-4 leukemia
UACC-257 melanoma = test system: UACC-257 melanoma
ACHN renal = test system: ACHN renal

SMILES	GI50 (NCI-H226 lung)	TGI (NCI-H226 lung)	GI50 (SF-268 CNS)	TGI (SF-268 CNS)	GI50 (A549 NSCLC)	TGI (A549 NSCLC)	GI50 (SK-OV-3 ovarian)	TGI (SK-OV-3 ovarian)	GI50 (BT-549 breast)	TGI (BT-549 breast)	GI50 (MALME-3M melanoma)	TGI (MALME-3M melanoma)	GI50 (T-47D breast)	TGI (T-47D breast)	GI50 (MOLT-4 leukemia)	TGI (MOLT-4 leukemia)	GI50 (UACC-257 melanoma)	TGI (UACC-257 melanoma)	GI50 (ACHN renal)	TGI (ACHN renal)
CCCCCCN1CCN(Cc2ccc(N(CC)CC)cc2)C(=O)C1=O	5.84 µM	27.8 µM	6.21 µM	> 100 µM	4.29 µM	> 100 µM	3.61 µM	> 100 µM	10.2 µM	95.6 µM	4.25 µM	> 100 µM	5.69 µM	> 100 µM	3.42 µM	32.8 µM	16.9 µM	> 100 µM	6.45 µM	> 100 µM
Cc1ccc2nc(N/N=C/c3cccc(C)n3)cc(C)c2c1		48.6 µM		38.7 µM		43.4 µM		30.2 µM		33.3 µM		30.3 µM		38.7 µM				31.8 µM		31.4 µM
O=[N+]([O-])/C=C/c1ccc([N+](=O)[O-])cc1	2.06 µM	5.37 µM	3.65 µM	12.9 µM	3.15 µM	13.1 µM	4.15 µM	14.4 µM	2.1 µM	4.02 µM	4.23 µM	15.1 µM	2.78 µM	9.03 µM	5.81 µM	62.5 µM	1.88 µM	5.01 µM	2.08 µM	4.16 µM
C=C1C(=O)O[C@H]2C[C@@H]1CCC1(C)OC1CC/C(C)=C/CC[C@H]2C (stereo not given in full)	18.7 µM	39.4 µM	18.7 µM	37 µM	19.7 µM	39 µM	19.3 µM	37.1 µM	23.5 µM	45.3 µM			16.9 µM	37.6 µM	18 µM	33.5 µM	19.2 µM	37.2 µM	> 100 µM	> 100 µM
CC[C@@]1(O)C(=O)OCc2c1cc1n(c2=O)Cc2cc3c(NC(=O)CN)cccc3nc2-1		3.79 µM		> 39.8 µM		> 48.5 µM		25.3 µM		> 100 µM				0.744 µM		0.161 µM		13.2 µM		1.02 µM
C[C@@H]1COC(Nc2ccc3ncnc(Nc4ccc(OCc5nccs5)c(Cl)c4)c3c2)=N1	4.02 µM and 4.04 µM	> 10 µM and 18.2 µM	6.27 µM and 5.59 µM	> 10 µM and 27.7 µM	> 10 µM and 5.3 µM	> 10 µM and 32.4 µM	0.167 µM and 0.178 µM	> 10 µM and 14.4 µM	3.65 µM and 3.28 µM	> 10 µM and 12.4 µM	> 10 µM and 4.49 µM	> 10 µM and 18.5 µM	0.286 µM and 1.03 µM	> 10 µM and 12.5 µM	3.38 µM and 2.87 µM	> 10 µM and 8.72 µM	> 10 µM and 5.59 µM	> 10 µM and 25.6 µM	0.446 µM and 0.432 µM	> 10 µM and 16.6 µM
COc1cc2c3c(n(CCCNCCNCCCN)c(=O)c2cc1OC)-c1cc2c(cc1C3=O)OCO2	2.06 µM	7.06 µM	1.99 µM	11.4 µM	10.8 µM	> 100 µM	8.08 µM	> 100 µM	15.1 µM	35.2 µM			2.72 µM	17.3 µM			9.51 µM	30.9 µM	0.18 µM	2.6 µM
COc1ccc(C2=C(c3cc(OC)c(OC)c(OC)c3)C(=O)OC2)cc1OC	6.06 µM	> 28.5 µM	0.0906 µM	30.5 µM	0.25 µM	> 29.1 µM	8.27 µM	> 100 µM	12.1 µM	97.9 µM			54 µM	> 100 µM	0.0466 µM	> 100 µM	> 38.6 µM	> 81.1 µM	67.5 µM	> 100 µM
NC1=NC(c2ccc(F)cc2)C2=C(N1)c1ccc3ccccc3c1OCC2 (stereo not given)	9.57 µM	57.4 µM	18.2 µM	> 100 µM	18.7 µM	> 100 µM	26.8 µM	> 100 µM	33.6 µM	> 100 µM	18.5 µM	> 100 µM	13.5 µM	> 100 µM			34.2 µM	> 100 µM	29.7 µM	> 100 µM
O=C1C=CC(=O)c2c1ncc1c2nc2sccn21	37.6 µM	> 100 µM	18.5 µM	> 100 µM	52.4 µM	> 100 µM	98.3 µM	> 100 µM	12.4 µM	27.7 µM	12.7 µM	26.5 µM	31.9 µM	> 100 µM	3.57 µM	> 100 µM	20.2 µM	37.2 µM	21.7 µM	39.6 µM
COc1cc2c(cc1OC)-c1c(c3ccc([N+](=O)[O-])cc3c(=O)n1CCCN)C2=O	3.61 µM	12.1 µM	1.4 µM	12.3 µM	0.395 µM	1.68 µM	8.81 µM	20.2 µM	1.79 µM	4.49 µM	5.31 µM	16.4 µM	0.271 µM	8.47 µM	0.165 µM	1.6 µM	6.79 µM	14.6 µM	0.242 µM	4.04 µM
CNCCOC(=O)/C=C1/CCC2C(C(O)CC3C(C)(C(=O)OC)CCCC23C)C1C (stereo not given)	0.0191 µM	0.0408 µM	< 0.01 µM	0.02 µM	< 0.01 µM	0.0116 µM	0.0205 µM	0.0394 µM	0.0242 µM	0.064 µM	0.0253 µM	0.0599 µM	0.0294 µM	0.0762 µM	< 0.01 µM	0.0203 µM	0.0226 µM	0.0512 µM	< 0.01 µM	0.0173 µM
Cc1ccc(F)cc1NC(=O)c1cc(Cl)ccc1Nc1ccccc1	> 100 µM	> 100 µM	> 100 µM	> 100 µM	> 100 µM	> 100 µM	> 100 µM	> 100 µM	> 100 µM	> 100 µM	> 100 µM	> 100 µM	> 100 µM	> 100 µM	37.9 µM	> 100 µM	> 100 µM	> 100 µM	> 100 µM	> 100 µM
COc1cc2c(cc1OCCCN1CCN(c3cc(=O)oc4c(C)c(OC)ccc34)CC1)N=C[C@@H]1CCCN1C2=O	1.88 µM	4.03 µM	0.91 µM	> 20.9 µM			10.2 µM	> 78.4 µM	1.21 µM	6.96 µM	1.16 µM	3.59 µM	1.17 µM		0.372 µM	3.7 µM			1.86 µM	4.55 µM
COc1ccc(C(=O)CC(c2ccc(OC)c(OC)c2)c2c(O)c3ccccc3oc2=O)cc1OC (stereo not given)		> 100 µM		> 100 µM		> 100 µM		> 100 µM		> 100 µM		> 100 µM		> 100 µM		> 100 µM		> 100 µM		> 100 µM
COc1ccc(/C=C\c2cc(OC)c(OC)c(OC)c2)cc1OCC(=O)Nc1nc2ccc(OC(F)(F)F)cc2s1	4.3 µM	62.2 µM	6.01 µM	> 100 µM	6 µM	> 100 µM	8.42 µM	> 100 µM	10.5 µM	> 100 µM			3.95 µM	> 100 µM	4.21 µM	> 100 µM	89.2 µM	> 100 µM	8.31 µM	> 100 µM
Cc1ccccc1C(C(=O)NC1CCCCC1)N(C(=O)Cn1ccnc1C)c1cccc(F)c1 (stereo not given)	> 87.4 µM	> 100 µM	> 66.5 µM	> 100 µM	> 100 µM	> 100 µM	> 65.4 µM	> 100 µM	> 52.6 µM	> 100 µM	> 52.8 µM	> 100 µM	> 58.4 µM	> 100 µM	> 100 µM	> 100 µM	> 100 µM	> 100 µM	> 58.7 µM	> 100 µM
O=C(/C=C\c1ccc2ccccc2n1)c1cc(Cl)ccc1O	9.41 µM	38.2 µM	12.2 µM	27.2 µM	57.9 µM	> 100 µM	61.4 µM	> 100 µM	4.82 µM	17 µM	8.64 µM	25.8 µM	3.68 µM	19 µM	3.12 µM	24.1 µM	24.3 µM	63.2 µM	8.32 µM	21.4 µM
CCC(=O)c1ccc2c(c1)N(CCCN1CCN(CCO)CC1)c1ccccc1S2	17.6 µM	33.8 µM	15.4 µM	29.5 µM	16.2 µM	32.1 µM	16.8 µM	31.6 µM	14.9 µM	28.9 µM	8.85 µM	26.1 µM	14 µM	31.5 µM	11 µM	26.8 µM	2.86 µM	7.97 µM	16.2 µM	32 µM
O=C(NC1(C(=O)O)CC1c1ccccc1)c1ccccc1 (stereo not given)		> 100 µM		> 100 µM		> 100 µM		> 100 µM		> 100 µM		> 100 µM		> 100 µM		> 100 µM		> 100 µM		> 100 µM
Cc1cc2nc3c4cccc(O)c4n(CCN(C)C)c3nc2cc1C	3.72 µM	52.9 µM	4.23 µM	27.6 µM	1.41 µM	12.5 µM	3.04 µM	14.6 µM	5.38 µM	32.8 µM	1.64 µM	3.42 µM	3.8 µM	27.9 µM	0.443 µM	8.98 µM	2 µM	4.58 µM	1.09 µM	3.18 µM
CO/C(=N\N=C\c1cccc(C(F)(F)F)c1)c1ccncc1		27.4 µM			15.5 µM	> 100 µM		99.1 µM	8.78 µM	68 µM	9.42 µM	> 100 µM		> 100 µM				> 100 µM	27.3 µM	> 100 µM
Cc1ccc(Oc2nc3ccccc3cc2-c2nnc(Cn3c(COc4ccccc4)nc4ccccc43)o2)cc1	5.99 µM	31.4 µM	3.41 µM	15.9 µM	8.5 µM	24.2 µM	11.8 µM	32.7 µM	1.77 µM	4.06 µM	3.65 µM	15.6 µM	2.61 µM	14.6 µM	2.18 µM	7.89 µM	3.28 µM	14.9 µM		
Cc1ccc(C[P+](c2ccccc2)(c2ccccc2)c2ccccc2)cc1	1.73 µM	> 25.8 µM	2.7 µM	> 57.8 µM	0.684 µM		2.57 µM	> 26.6 µM	0.671 µM	14.3 µM	0.428 µM	14.5 µM	0.314 µM		2.44 µM	> 21.7 µM	0.267 µM	3.56 µM	5.94 µM	> 74.9 µM
N/C(=N\c1nc2ccccc2s1)NC(=O)Nc1cccc2ccccc12	0.6 µM	> 68.9 µM	2.72 µM	> 100 µM	0.436 µM	> 100 µM			2.91 µM	> 100 µM	1.24 µM	> 100 µM	0.556 µM	> 100 µM	0.472 µM	> 100 µM	> 100 µM	> 100 µM		
Oc1ccc(CN(Cc2ccc(C(F)(F)F)cc2)Cc2ccc(O)c3ncccc23)c2cccnc12	0.0512 µM	11.7 µM	0.0487 µM	> 100 µM	0.0349 µM	> 100 µM	0.0655 µM	> 48.3 µM	0.0297 µM	> 100 µM	0.0461 µM	> 100 µM	0.028 µM	> 100 µM	0.0818 µM	> 100 µM			0.0256 µM	> 100 µM
CC(C)=CC1CC(C)C2(CCC3(C)CC4C(C(=O)CC4(C)O)/C(C=O)=C\CC32)O1 (stereo not given)		0.147 µM		0.275 µM		0.215 µM		0.297 µM		0.351 µM				0.143 µM		0.0483 µM		0.28 µM		0.115 µM
Cc1cc(C)c2c(N)c3cccc(C)c3nc2n1	1.2 µM	4.49 µM	2.15 µM	6.3 µM			2.11 µM	9.36 µM	3.48 µM	20.2 µM	1.93 µM	4.38 µM	2.03 µM	6.25 µM	2.17 µM	10 µM	2.15 µM	4.45 µM	0.852 µM	5.08 µM
